Experimental data reported in patent US20100221445A1, “O-DESMETHYLVENLAFAXINE AND BAZEDOXIFENE COMBINATION PRODUCT AND USES THEREOF” (Wyeth LLC, priority 2005, published 2010).

Legend:
[1] = system: MCF-7 cell line (human breast cancer cell line); conditions: MCF-7 human breast cancer cell line; cited from earlier work
[2] = system: bone loss and cholesterol; conditions: ovariectomized rat model of osteopenia; cited from earlier work
[3] = system: uterine response; conditions: preclinical models of uterine stimulation; cited from earlier work
[4] = Dissolution of bilayer tablets in 0.2% Tween 80/10 mM Acetic acid at 37° C.; assay type: physicochemical
[5] = system: reuptake of serotonin and norepinephrine; conditions: cited from earlier work
[6] = Storage stability of DVS/Bazedoxifene bilayered tablets (strength, % recovery); conditions: 25/60 and 40/75 for 3 months
Procedure: 80 DVS/Bazedoxifene bilayered tablets (150 mg/40 mg respectively) were stored at 25° C./60 relative humidity (RH) and 40° C./75 RH in a 50-mL high density polyethylene (HDPE) closed container for 2 weeks, 1 month and 3 months. The strengths of each active constituents and the dissolution rate in 0.2% Tween 80/10 mM Acetic acid at 37° C. were monitored.

## Cc1c(-c2ccc(O)cc2)n(Cc2ccc(OCCN3CCCCCC3)cc2)c2ccc(O)cc12 [BZA, 1-[4-(2-azepan-1-yl-ethoxy)-benzyl]-2-(4-hydroxy-phenyl)-3-methyl-1H-indol-5-ol acetic acid]
[1]
  Behaviour in MCF-7 cell line: estrogen antagonist
[2]
  Effect in preventing bone loss and reducing cholesterol: estrogen agonist-like effect
[3]
  Stimulation of uterine response: little or no stimulation

## CN(C)CC(c1ccc(O)cc1)C1(O)CCCCC1 (stereo not shown) [DVS]
[4]; first 2 hours
  Release (in words): slow release
[4]; in 24 hours
  Release (in words): complete release

## CN(C)CC(c1ccc(O)cc1)C1(O)CCCCC1 (stereo not shown) [ODV, 1-[2-(dimethylamino)-1-(4-phenol)ethyl]-cyclohexanol]
[5]
  Blockade of reuptake of serotonin and norepinephrine: selectively blocks
[6]
  Stability on storage (in words): stable
